Assay [1] deals with T1, 5HT2A receptor (Homo sapiens, UniProt P28223). The assay is described as follows: biochemical. The format is binding. Also on record: expressed in transfected cells; crude membranes.
For assay [2], the target named is T1, 5HT2A receptor. The assay is described as follows: cell-based. The conditions noted are these: for Emax: HEK-293T. Also noted: expressed in transfected cells; host or cells: HEK293T cells, transient co-transfection.
Assay [3] addresses T1, 5HT2A receptor. In words: cell-based. As to conditions: for Emax: HEK-293T. Also on record: expressed in transfected cells; host or cells: HEK293T cells, transient co-transfection. This is another data set of the same source.
[4] abbreviates: 5HT2A Ki (nM), secondary binding assay, Cheng-Prusoff.
[5] abbreviates: 5HTA Gq EC50 (nM), BRET2 Gαq dissociation, HEK293T.
The mark [6] stands for this setting: read-out: 5HTA Gq Emax (%), BRET2 Gαq dissociation, HEK293T, normalized to 5-HT.
Where [7] appears, read: 5HT2A β-Arr EC50 (nM), BRET1 beta-arrestin2 recruitment, HEK293T.
The mark [8] stands for this setting: read-out: 5HT2A β-Arr Emax (%), BRET1 beta-arrestin2 recruitment, HEK293T, normalized to 5-HT.
[9] abbreviates: 5HT2A Ki (nM), secondary radioligand binding, Ki from IC50 by Cheng-Prusoff.
[10] abbreviates: 5HT2A Gq EC50 (nM), BRET2 Gαq dissociation, HEK293T cells.
Where [11] appears, read: BRET2 Gαq dissociation, HEK293T cells, normalized to 5-HT, read-out: 5HT2A Gq Emax (%).
Setting [12] is: 5HT2A β-Arr EC50 (nM), BRET1 beta-arrestin2 recruitment, HEK293T cells.
Where [13] appears, read: BRET1 beta-arrestin2 recruitment, HEK293T cells, normalized to 5-HT, read-out: 5HT2A β-Arr Emax (%).
[14] abbreviates: BRET2 Gαq dissociation, HEK293T, normalized to 5-HT, read-out: 5HTA Gq Emax (%).
The mark [15] stands for this setting: BRET1 beta-arrestin2 recruitment, HEK293T, normalized to 5-HT, read-out: 5HT2A β-Arr Emax (%).
The mark [16] stands for this setting: secondary radioligand binding, Ki from IC50 by Cheng-Prusoff, read-out: 5HT2A Ki.
Setting [17] is: BRET2 Gαq dissociation, HEK293T cells, read-out: 5HT2A Gq EC50.
[18] abbreviates: BRET1 beta-arrestin2 recruitment, HEK293T cells, read-out: 5HT2A β-Arr EC50.
Setting [19] is: secondary binding assay, Cheng-Prusoff, read-out: 5HT2A Ki.
[20] abbreviates: BRET2 Gαq dissociation, HEK293T, read-out: 5HTA Gq EC50.

Where two headings read alike, the source gives them in different places.

T1 sequence (P28223 whole entry): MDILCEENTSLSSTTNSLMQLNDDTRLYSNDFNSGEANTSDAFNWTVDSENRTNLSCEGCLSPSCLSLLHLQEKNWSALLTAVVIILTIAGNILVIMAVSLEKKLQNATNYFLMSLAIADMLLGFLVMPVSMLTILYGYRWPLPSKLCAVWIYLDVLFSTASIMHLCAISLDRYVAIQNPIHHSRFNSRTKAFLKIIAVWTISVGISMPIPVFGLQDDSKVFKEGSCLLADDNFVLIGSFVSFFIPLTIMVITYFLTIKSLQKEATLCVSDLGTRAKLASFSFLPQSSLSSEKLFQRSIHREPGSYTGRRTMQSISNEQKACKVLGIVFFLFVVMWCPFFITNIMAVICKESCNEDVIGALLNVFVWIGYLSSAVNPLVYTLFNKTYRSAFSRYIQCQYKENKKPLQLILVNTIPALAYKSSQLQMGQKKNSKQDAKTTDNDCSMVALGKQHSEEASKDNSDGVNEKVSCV

As for `[2H]C([2H])([2H])N1CCC=C(c2n[nH]c3c(Cl)cccc23)C1` [Example 150, 7-chloro-3-(1-(methyl-d3)-1,2,5,6-tetrahydropyridin-3-yl)-1H-indazole], at 5HT2A receptor [1] (setting [4]), the inhibition constant Ki (in general, the dissociation constant of the complex between target and ligand, obtained from inhibition or displacement) is 842 nM. Also, the EC50 (usually the concentration needed to bring the measured effect to its halfway point) at 5HT2A receptor [2] (setting [5]) was 13.3 nM; on 5HT2A receptor [3] (setting [7]), 29.9 nM. Also, the Emax – broadly, the size of the effect at its maximum, as opposed to the concentration needed – at 5HT2A receptor [2] (setting [6]) came out at 95.3%; at 5HT2A receptor [3] (setting [8]), 60.9%.

Molecule `CN1CCC=C(c2c[nH]c3ncc(Cl)cc23)C1` [Example 7, 5-chloro-3-(1-methyl-1,2,5,6-tetrahydropyridin-3-yl)-1H-pyrrolo[2,3-b]pyridine] yielded a Ki on 5HT2A receptor [1] (setting [9]) of 209 nM. For the same molecule, the EC50 at 5HT2A receptor [2] (setting [10]) is 56.9 nM; on 5HT2A receptor [3] (setting [12]), 18.7 nM. Besides, the Emax came out at 73.4% on 5HT2A receptor [2] (setting [11]) and 20.7% on 5HT2A receptor [3] (setting [13]).

At 5HT2A receptor [1] (setting [4]), `OCCN1CCC=C(c2n[nH]c3c(Cl)cccc23)C1` [Example 168, 2-(5-(7-chloro-1H-indazol-3-yl)-3,6-dihydropyridin-1(2H)-yl)ethan-1-ol] registered a Ki of 8640 nM. Also, the EC50 on 5HT2A receptor [2] (setting [5]) was 183 nM; at 5HT2A receptor [3] (setting [7]) it was 1050 nM. Further, the Emax on 5HT2A receptor [2] (setting [14]) came to 68.2%; at 5HT2A receptor [3] (setting [15]) it was 41.6%.

For `Clc1cccc2c(C34CNCC3C4)n[nH]c12` (single isomer, unassigned) [Example 273, 3-(3-azabicyclo[3.1.0]hexan-1-yl)-7-chloro-1H-indazole], on 5HT2A receptor [1] (setting [4]), the Ki was determined as 6300 nM. Also, the EC50 came out at 226 nM at 5HT2A receptor [2] (setting [5]) and 1300 nM at 5HT2A receptor [3] (setting [7]). In addition, the “5HTA Gq Emax (%)” value at 5HT2A receptor [2] (BRET2 Gαq dissociation, HEK293T, normalized to 5-HT) turned out to be 81.0%. In addition, the “5HT2A β-Arr Emax (%)” value on 5HT2A receptor [3] (BRET1 beta-arrestin2 recruitment, HEK293T, normalized to 5-HT) is recorded as 20.73%.

As for `Fc1cc(Cl)c2[nH]cc(C34CNCC3C4)c2c1` (centres unmarked) [Example 279, 3-(3-azabicyclo[3.1.0]hexan-1-yl)-7-chloro-5-fluoro-1H-indole], on 5HT2A receptor [1] (setting [4]), the Ki came out at 75.2 nM. Also, the values for the EC50 at 5HT2A receptor [2] (setting [5]) and on 5HT2A receptor [3] (setting [7]) were 110 nM and 380 nM, respectively. Further, the Emax stood at 98.6% at 5HT2A receptor [2] (setting [6]) and 60.9% on 5HT2A receptor [3] (setting [8]).

Regarding `Cc1cccc2[nH]cc(C3=CCCNC3)c12` [Example 17, 4-methyl-3-(1,2,5,6-tetrahydropyridin-3-yl)-1H-indole], on 5HT2A receptor [1] (setting [16]), the Ki came to 11.5 nM. Further, the EC50 stood at 22 nM on 5HT2A receptor [2] (setting [17]) and 147 nM on 5HT2A receptor [3] (setting [18]). Moreover, the Emax is 85.7% on 5HT2A receptor [2] (setting [11]) and 42% on 5HT2A receptor [3] (setting [13]).

For `CCc1cccc2c(C3=CCCN(Cc4ccccc4)C3)c[nH]c12` [Example 69, 3-(1-benzyl-1,2,5,6-tetrahydropyridin-3-yl)-7-ethyl-1H-indole], on 5HT2A receptor [1] (setting [9]), the Ki amounted to 199 nM. Also, the EC50 on 5HT2A receptor [2] (setting [10]) was 98.2 nM; on 5HT2A receptor [3] (setting [12]) it was 1740 nM. Besides, the maximal effect (Emax) on 5HT2A receptor [2] (setting [11]) amounted to 49.7%; on 5HT2A receptor [3] (setting [13]), 63.5%.

For the molecule `C=CCc1cccc2c(C3=CCCN(C)C3)c[nH]c12` [Example 257, 7-allyl-3-(1-methyl-1,2,5,6-tetrahydropyridin-3-yl)-1H-indole], on 5HT2A receptor [1] (setting [19]), the inhibitory constant (Ki) is 97 nM. The EC50 on 5HT2A receptor [2] (setting [20]) was determined as 44.9 nM; at 5HT2A receptor [3] (setting [7]), 105 nM. The Emax was 90.7% at 5HT2A receptor [2] (setting [14]) and 52.1% on 5HT2A receptor [3] (setting [15]).

As to `Fc1cccc2c(C3=CCCNC3)n[nH]c12` [Example 90, 7-fluoro-3-(1,2,5,6-tetrahydropyridin-3-yl)-1H-indazole], the affinity on 5HT2A receptor [1] (setting [9]), expressed as Ki, was 1390 nM. In addition, the EC50 came out at 9.2 nM at 5HT2A receptor [2] (setting [17]) and 86 nM on 5HT2A receptor [3] (setting [18]). The Emax on 5HT2A receptor [2] (setting [11]) is 95.6%; at 5HT2A receptor [3] (setting [13]) it was 70%.

With `C#CCN1CCC=C(c2n[nH]c3c(Cl)cccc23)C1` [Example 125, 7-chloro-3-(1-(prop-2-yn-1-yl)-1,2,5,6-tetrahydropyridin-3-yl)-1H-indazole], the Ki on 5HT2A receptor [1] (setting [9]) stood at 1970 nM. For the same molecule, the EC50 on 5HT2A receptor [2] (setting [17]) came to 75 nM; on 5HT2A receptor [3] (setting [12]) it was 291 nM. Also, the Emax at 5HT2A receptor [2] (setting [11]) turned out to be 93.5%; on 5HT2A receptor [3] (setting [13]), 63.3%.

With `CN1CC=C(c2c[nH]c3c(Cl)cccc23)C1` [Example 210, 7-chloro-3-(1-methyl-2,5-dihydro-1H-pyrrol-3-yl)-1H-indole], the Ki on 5HT2A receptor [1] (setting [19]) was found to be 86.1 nM. The results for the 50% effective concentration (EC50) on 5HT2A receptor [2] (setting [20]) and at 5HT2A receptor [3] (setting [7]) were 33.1 nM and 119 nM, respectively. In addition, the Emax at 5HT2A receptor [2] (setting [14]) came out at 74.9%; at 5HT2A receptor [3] (setting [15]) it was 33.6%.

On to `CN1CC(c2c[nH]c3c(Cl)cccc23)C1` [Example 256, 7-chloro-3-(1-methylazetidin-3-yl)-1H-indole], for which the affinity at 5HT2A receptor [1] (setting [4]) corresponds to a Ki of 2010 nM. Further, the figures for the concentration for a half-maximal effect (EC50) at 5HT2A receptor [2] (setting [5]) and on 5HT2A receptor [3] (setting [7]) were 367 nM and 1000 nM, respectively. Besides, the Emax on 5HT2A receptor [2] (setting [14]) was determined as 97.5%; at 5HT2A receptor [3] (setting [15]) it was 31.7%.

The molecule `C1=C(c2c[nH]c3cccnc23)CNCC1` [Example 138, 3-(1,2,5,6-tetrahydropyridin-3-yl)-1H-pyrrolo[3,2-b]pyridine] returned a Ki at 5HT2A receptor [1] (setting [4]) of 147 nM. Also, the concentration giving a half-maximal response (EC50) at 5HT2A receptor [2] (setting [5]) was 118 nM; on 5HT2A receptor [3] (setting [7]), 1420 nM. In addition, the Emax at 5HT2A receptor [2] (setting [14]) was determined as 79%; at 5HT2A receptor [3] (setting [15]) it was 101%.

The molecule `Fc1cccc2c(C3=CCCN(Cc4ccccc4)C3)c[nH]c12` [Example 73, 3-(1-benzyl-1,2,5,6-tetrahydropyridin-3-yl)-7-fluoro-1H-indole] yielded a Ki on 5HT2A receptor [1] (setting [9]) of 151 nM. Also, the EC50 was determined as 116 nM at 5HT2A receptor [2] (setting [10]) and 331 nM at 5HT2A receptor [3] (setting [12]). Moreover, the Emax was determined as 81.9% at 5HT2A receptor [2] (setting [11]) and 56.5% at 5HT2A receptor [3] (setting [13]).

At 5HT2A receptor [1] (setting [4]), `Cc1c(F)ccc2c(C3=CCCN(C)C3)c[nH]c12` [Example 127, 6-fluoro-7-methyl-3-(1-methyl-1,2,5,6-tetrahydropyridin-3-yl)-1H-indole] came in with a Ki of 121 nM. The EC50 at 5HT2A receptor [2] (setting [20]) amounted to 26.6 nM; on 5HT2A receptor [3] (BRET1 beta-arrestin2 recruitment, HEK293T, read-out: 5HT2A β-Arr EC50) it was 62.9 nM. In addition, the maximal effect (Emax) worked out at 90.2% on 5HT2A receptor [2] (setting [14]) and 48.9% on 5HT2A receptor [3] (setting [15]).

For the molecule `CN1CCC=C(c2c[nH]c3nccc(F)c23)C1` [Example 117, 4-fluoro-3-(1-methyl-1,2,5,6-tetrahydropyridin-3-yl)-1H-pyrrolo[2,3-b]pyridine], on 5HT2A receptor [1] (setting [9]), affinity was put at a Ki of 1360 nM. The figures for the EC50 at 5HT2A receptor [2] (setting [10]) and on 5HT2A receptor [3] (setting [12]) were 253 nM and 865 nM, respectively. For the same molecule, the Emax came out at 110% at 5HT2A receptor [2] (setting [11]) and 51.1% on 5HT2A receptor [3] (setting [13]).

Regarding `CCN1CCC=C(c2c[nH]c3c(Cl)cccc23)C1` [Example 126, 7-chloro-3-(1-ethyl-1,2,5,6-tetrahydropyridin-3-yl)-1H-indole], at 5HT2A receptor [1] (setting [16]), the inhibitory constant (Ki) was found to be 42.6 nM. For the same molecule, the EC50 was 40.2 nM on 5HT2A receptor [2] (setting [17]) and 74.9 nM on 5HT2A receptor [3] (setting [18]). The Emax is 96.6% at 5HT2A receptor [2] (setting [11]) and 62.9% on 5HT2A receptor [3] (setting [13]).

`FC(F)CN1CCC=C(c2n[nH]c3c(Cl)cccc23)C1` [Example 153, 7-chloro-3-(1-(2,2-difluoroethyl)-1,2,5,6-tetrahydropyridin-3-yl)-1H-indazole]: the inhibition constant Ki at 5HT2A receptor [1] (setting [4]) is 634 nM. Moreover, the half-maximal effective concentration (EC50) is 1240 nM at 5HT2A receptor [2] (setting [5]) and 1200 nM at 5HT2A receptor [3] (setting [7]). In addition, the Emax stood at 83.9% at 5HT2A receptor [2] (setting [14]) and 77.4% on 5HT2A receptor [3] (setting [15]).

`N#Cc1cccc2c(C34CNCC3C4)n[nH]c12` (centres unmarked) [Example 184, 3-(3-azabicyclo[3.1.0]hexan-1-yl)-1H-indazole-7-carbonitrile] gave a Ki at 5HT2A receptor [1] (setting [4]) of 5680 nM. For the same molecule, the EC50 is 423 nM on 5HT2A receptor [2] (setting [5]) and 1970 nM on 5HT2A receptor [3] (setting [7]). In addition, the maximal effect (Emax) at 5HT2A receptor [2] (setting [14]) is 103%; at 5HT2A receptor [3] (setting [15]), 68.2%.

For the origin of these results see patent US20260265246A1 (ICAHN SCHOOL OF MEDICINE AT MOUNT SINAI, priority 2021, published 2026).
